Tested on: phenylquinone-induced writhing reactions
Experiment: phenylquinone-induced writhing in mice
Format: in vivo
Details: male NMRI mice, 10 mg/kg i.v., phenylquinone i.p. 10 minutes after compound, writhing counted 5-20 minutes after phenylquinone
Experimental: The investigation into analgesic efficacy was performed by phenylquinone-induced writhing in mice (modified after: I. C. Hendershot, J. Forsaith, J. Pharmacol. Exp. There. 125, 237-240 (1959)). The corresponding literature description is hereby introduced as a reference and is deemed to be part of the disclosure.
Male NMRI mice weighing from 25 to 30 g were used for this purpose. Groups of 10 animals per substance dose received, 10 minutes after intravenous administration of the compounds tested, 0.3 ml/mouse of a 0.02% aqueous solution of phenylquinone (phenylbenzoquinone, Sigma, Deisenhofen; solution prepared with addition of 5% of ethanol and stored in a water bath at 45° C.) administered intraperitoneally. The animals were placed individually in observation cages. A push button counter was used to record the number of pain-induced stretching movements (writhing reactions=straightening of the torso with stretching of the rear extremities) for 5-20 minutes after phenylquinone administration. The control was provided by animals which received only physiological common salt solution.
The compounds were tested at the standard dosage of 10 mg/kg. Inhibition of the writhing reactions by a substance was calculated according to the following formula: [formula]
The in-depth investigation into analgesic efficacy was performed using phenylquinbne-induced writhing in mice, as described above.

| SMILES | % inhibition of writhing reactions [%] |
| --- | --- |
| COc1cccc(C2(O)CCC(NC(=O)Cc3c(OC)c4ccc(Cl)cc4[nH]c3=O)CC2CN(C)C)c1 (centres unmarked) [Example 2, 2′-(7-Chloro-4-methoxy-2-oxo-1,2-dihydroquinolin-3-yl)-N-[3″-(N,N-dimethylaminomethyl)-4″-hydroxy-4″-(m-methoxyphenyl)cyclohexyl]acetamide] | 63 |
| COc1cccc(C2(O)CCC(NC(=O)Cc3c(O)c4ccc(Cl)cc4[nH]c3=O)CC2CN(C)C)c1 (centres unmarked) [Example 1, 2′-(7-Chloro-4-hydroxy-2-oxo-1,2-dihydroquinolin-3-yl)-N-[3″-(N,N-dimethylaminomethyl)-4″-hydroxy-4″-(m-methoxyphenyl)cyclohexyl]acetamide] | 60 |
